Measured values published in ChEMBL document CHEMBL4311986, “Synthesis and biological evaluation of new multi-target 3-(1H-indol-3-yl)pyrrolidine-2,5-dione derivatives with potential antidepressant effect” (Eur J Med Chem, 2019).
Blank lines part the entries; values can stand above or below the compound they belong to.

Experiments:
[1] = target: Sodium-dependent serotonin transporter (Homo sapiens, UniProt P31645); assay: Displacement of [3H]-imipramine from human serotonin transporter expressed in HEK293 cells membranes incubated for 30 mins by microbeta scintillation counting analysis; format: cell membranes
Sequence of Sodium-dependent serotonin transporter (P31645 whole entry): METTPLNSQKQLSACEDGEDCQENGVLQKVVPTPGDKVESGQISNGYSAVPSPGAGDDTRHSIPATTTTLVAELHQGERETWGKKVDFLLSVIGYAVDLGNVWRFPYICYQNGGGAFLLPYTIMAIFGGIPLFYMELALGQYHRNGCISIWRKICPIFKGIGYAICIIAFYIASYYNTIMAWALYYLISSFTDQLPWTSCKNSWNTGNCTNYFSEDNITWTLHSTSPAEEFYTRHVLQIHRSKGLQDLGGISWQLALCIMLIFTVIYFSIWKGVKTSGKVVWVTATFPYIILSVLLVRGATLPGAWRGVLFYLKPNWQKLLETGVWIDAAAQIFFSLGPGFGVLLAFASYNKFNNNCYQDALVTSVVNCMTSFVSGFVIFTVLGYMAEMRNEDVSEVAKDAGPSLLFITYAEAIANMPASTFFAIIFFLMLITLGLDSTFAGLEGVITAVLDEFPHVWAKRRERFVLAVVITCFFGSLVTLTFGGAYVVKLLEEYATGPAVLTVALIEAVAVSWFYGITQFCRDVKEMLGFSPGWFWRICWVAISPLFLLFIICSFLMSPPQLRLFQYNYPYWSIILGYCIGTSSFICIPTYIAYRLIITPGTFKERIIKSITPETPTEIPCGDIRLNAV

[2] = target: T1, 5-hydroxytryptamine receptor 1A (Homo sapiens, UniProt P08908); assay: biochemical
T1 sequence (P08908 whole entry): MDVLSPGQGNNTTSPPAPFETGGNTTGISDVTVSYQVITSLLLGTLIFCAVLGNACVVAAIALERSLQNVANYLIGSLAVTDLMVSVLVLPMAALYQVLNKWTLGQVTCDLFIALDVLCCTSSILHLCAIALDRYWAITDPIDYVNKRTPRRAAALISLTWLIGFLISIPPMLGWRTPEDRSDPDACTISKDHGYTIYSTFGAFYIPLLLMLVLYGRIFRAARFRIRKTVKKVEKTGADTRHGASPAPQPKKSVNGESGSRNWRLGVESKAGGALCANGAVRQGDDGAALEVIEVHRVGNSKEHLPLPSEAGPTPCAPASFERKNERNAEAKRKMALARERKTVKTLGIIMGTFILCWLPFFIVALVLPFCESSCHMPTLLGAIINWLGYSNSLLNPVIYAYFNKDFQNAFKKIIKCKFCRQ

Mus musculus [3] = assay: Induction of hypothermia in CD-1 mouse assessed as change in body temperature at 20 mg/kg, ip measured after 120 mins by thermometric method; format: functional, organism-based
Mus musculus [4] = assay: Induction of hypothermia in CD-1 mouse assessed as change in body temperature at 20 mg/kg, ip measured after 30 mins by thermometric method; format: functional, organism-based
Mus musculus [5] = assay: Induction of hypothermia in CD-1 mouse assessed as change in body temperature at 10 mg/kg, ip pretreated for 60 mins with 5-HT1AR antagonist WAY100635 followed by compound treatment and measured after 30 mins by thermometric method; format: functional, organism-based
Mus musculus [6] = assay: Induction of hypothermia in CD-1 mouse assessed as change in body temperature at 20 mg/kg, ip measured after 90 mins by thermometric method; format: functional, organism-based
Mus musculus [7] = assay: Induction of hypothermia in CD-1 mouse assessed as change in body temperature at 5 mg/kg, ip measured after 30 mins by thermometric method; format: functional, organism-based
[8] = target: 5-hydroxytryptamine receptor 6 (Homo sapiens, UniProt P50406); assay: Displacement of [3H]-LSD from human 5-HT6 receptor expressed in HEK293 cells incubated for 1 hr by liquid scintillation counting method; format: cell-based
Sequence of 5-hydroxytryptamine receptor 6 (P50406 whole entry): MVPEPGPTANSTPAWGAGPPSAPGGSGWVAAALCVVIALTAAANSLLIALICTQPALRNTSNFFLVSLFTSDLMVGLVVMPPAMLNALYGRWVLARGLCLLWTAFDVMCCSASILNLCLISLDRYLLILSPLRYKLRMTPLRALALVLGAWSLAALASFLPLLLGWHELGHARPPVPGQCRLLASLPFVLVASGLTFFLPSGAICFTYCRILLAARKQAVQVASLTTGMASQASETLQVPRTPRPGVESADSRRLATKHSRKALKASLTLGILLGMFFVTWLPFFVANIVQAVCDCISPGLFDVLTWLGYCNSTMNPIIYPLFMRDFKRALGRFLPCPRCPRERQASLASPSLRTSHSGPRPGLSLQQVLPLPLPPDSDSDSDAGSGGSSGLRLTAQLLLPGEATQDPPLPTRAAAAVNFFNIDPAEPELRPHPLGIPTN

Mus musculus [9] = assay: Induction of hypothermia in CD-1 mouse assessed as change in body temperature at 10 mg/kg, ip measured after 90 mins by thermometric method; format: functional, organism-based
[10] = target: 5-hydroxytryptamine receptor 7 (Homo sapiens, UniProt P34969); assay: Displacement of [3H]-5-CT from human 5HT7 receptor expressed in HEK293 cells incubated for 1 hr by liquid scintillation counting method; format: cell-based
Sequence of 5-hydroxytryptamine receptor 7 (P34969 whole entry): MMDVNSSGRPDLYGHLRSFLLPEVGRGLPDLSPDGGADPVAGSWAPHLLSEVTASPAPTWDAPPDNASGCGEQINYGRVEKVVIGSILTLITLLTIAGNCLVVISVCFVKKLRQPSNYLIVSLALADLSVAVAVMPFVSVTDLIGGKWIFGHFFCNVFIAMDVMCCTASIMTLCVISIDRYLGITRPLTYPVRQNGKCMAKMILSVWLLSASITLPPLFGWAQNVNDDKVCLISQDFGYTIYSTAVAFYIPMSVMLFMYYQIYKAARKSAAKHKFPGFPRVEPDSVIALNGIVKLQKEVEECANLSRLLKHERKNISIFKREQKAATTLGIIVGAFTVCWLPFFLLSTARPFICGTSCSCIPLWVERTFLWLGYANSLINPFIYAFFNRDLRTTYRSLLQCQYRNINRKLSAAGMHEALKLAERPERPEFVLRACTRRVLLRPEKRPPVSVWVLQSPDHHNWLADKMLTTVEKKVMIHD

Mus musculus [11] = assay: Induction of hypothermia in CD-1 mouse assessed as change in body temperature at 20 mg/kg, ip measured after 60 mins by thermometric method; format: functional, organism-based
Mus musculus [12] = assay: Induction of hypothermia in CD-1 mouse assessed as change in body temperature at 10 mg/kg, ip measured after 60 mins by thermometric method; format: functional, organism-based
Mus musculus [13] = assay: Induction of hypothermia in CD-1 mouse assessed as change in body temperature at 5 mg/kg, ip measured after 120 mins by thermometric method; format: functional, organism-based
Mus musculus [14] = assay: Induction of hypothermia in CD-1 mouse assessed as change in body temperature at 10 mg/kg, ip pretreated for 30 mins with 5-HT1AR antagonist WAY100635 followed by compound treatment and measured after 30 mins by thermometric method; format: functional, organism-based
Mus musculus [15] = assay: Induction of hypothermia in CD-1 mouse assessed as change in body temperature at 10 mg/kg, ip measured after 120 mins by thermometric method; format: functional, organism-based
[16] = Half life in human liver microsomes at 1 uM measured for 5 to 30 mins in presence of NADPH by LC-MS/MS analysis; format: ADME, Microsome
Mus musculus [17] = assay: Induction of hypothermia in CD-1 mouse assessed as change in body temperature at 10 mg/kg, ip measured after 30 mins by thermometric method; format: functional, organism-based
Mus musculus [18] = assay: Induction of hypothermia in CD-1 mouse assessed as change in body temperature at 5 mg/kg, ip measured after 90 mins by thermometric method; format: functional, organism-based
D(2) dopamine receptor = D(2) dopamine receptor (Homo sapiens, UniProt P14416); assay: Displacement of [3H]-raclopride from human D2L receptor expressed in HEK293 cells incubated for 1 hr by liquid scintillation counting method; format: cell-based
Sequence of D(2) dopamine receptor (P14416 whole entry): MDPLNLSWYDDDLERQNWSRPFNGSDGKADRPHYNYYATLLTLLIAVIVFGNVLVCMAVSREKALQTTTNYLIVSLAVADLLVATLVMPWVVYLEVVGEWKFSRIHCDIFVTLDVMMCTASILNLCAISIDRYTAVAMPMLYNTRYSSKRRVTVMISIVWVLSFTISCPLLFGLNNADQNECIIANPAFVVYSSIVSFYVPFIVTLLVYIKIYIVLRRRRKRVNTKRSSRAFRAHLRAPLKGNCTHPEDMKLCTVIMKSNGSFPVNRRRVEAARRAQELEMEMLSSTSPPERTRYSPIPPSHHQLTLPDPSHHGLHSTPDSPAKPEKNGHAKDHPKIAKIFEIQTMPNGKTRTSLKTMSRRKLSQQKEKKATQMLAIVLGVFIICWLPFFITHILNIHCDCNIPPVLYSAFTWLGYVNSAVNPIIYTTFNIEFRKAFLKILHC

Mus musculus [19] = assay: Induction of hypothermia in CD-1 mouse assessed as change in body temperature at 5 mg/kg, ip measured after 60 mins by thermometric method; format: functional, organism-based
Mus musculus [20] = assay: Induction of hypothermia in CD-1 mouse assessed as change in body temperature at 15 mg/kg, ip pretreated for 30 mins with 5-HT1AR antagonist WAY100635 followed by compound treatment and measured after 30 mins by thermometric method (reference value: -0.1 to 0.1 deg C); format: functional, organism-based
Mus musculus [21] = assay: Induction of hypothermia in CD-1 mouse assessed as change in body temperature at 15 mg/kg, ip measured after 90 mins by thermometric method (reference value: -0.3 to 0.3 deg C); format: functional, organism-based
Mus musculus [22] = assay: Induction of hypothermia in CD-1 mouse assessed as change in body temperature at 15 mg/kg, ip measured after 120 mins by thermometric method (reference value: -0.1 to 0.3 deg C); format: functional, organism-based
Mus musculus [23] = assay: Induction of hypothermia in CD-1 mouse assessed as change in body temperature at 15 mg/kg, ip pretreated for 60 mins with 5-HT1AR antagonist WAY100635 followed by compound treatment and measured after 30 mins by thermometric method (reference value: -0.1 to 0.4 deg C); format: functional, organism-based
Mus musculus [24] = assay: Induction of hypothermia in CD-1 mouse assessed as change in body temperature at 15 mg/kg, ip measured after 30 mins by thermometric method (reference value: -0.2 to 0.4 deg C); format: functional, organism-based
Mus musculus [25] = assay: Induction of hypothermia in CD-1 mouse assessed as change in body temperature at 15 mg/kg, ip measured after 60 mins by thermometric method (reference value: -0.2 to 0.5 deg C); format: functional, organism-based

SMILES: COc1ccc2[nH]cc(C3CCN(CCN4C(=O)CC(c5c[nH]c6ccc(F)cc56)C4=O)CC3)c2c1 (centres undefined)
Ki [1]: 1310 nM
Ki [2]: > 5000 nM

SMILES: O=C1CC(c2c[nH]c3ccccc23)C(=O)N1CCCCN1CCCC(c2c[nH]c3ccccc23)C1 (centres undefined)
Ki [2]: 122 nM

SMILES: O=C1CC(c2c[nH]c3ccc(F)cc23)C(=O)N1CCCN1CCC(c2c[nH]c3ccc(F)cc23)CC1 (centres undefined)
Ki [1]: 140 nM
Ki [2]: 336 nM

SMILES: COc1ccc2[nH]cc(C3CCCN(CCCCN4C(=O)CC(c5c[nH]c6ccccc56)C4=O)C3)c2c1 (centres undefined)
Ki [2]: 78 nM

SMILES: COc1ccc2[nH]cc(C3CC(=O)N(CCCN4CCC(c5c[nH]c6ccc(F)cc56)CC4)C3=O)c2c1 (centres undefined)
Ki [1]: 30 nM
Ki [2]: 246 nM

SMILES: CN(C)C(=O)N[C@H]1CC[C@H](CCN2CCN(c3cccc(Cl)c3Cl)CC2)CC1 [CARIPRAZINE]
Ki [10]: 111 nM

SMILES: COc1ccc2[nH]cc(C3CCCN(CCCCN4C(=O)CC(c5c[nH]c6ccc(OC)cc56)C4=O)C3)c2c1 (centres undefined)
Ki [2]: 52 nM

Continued, in another order:

Ki [1]: 151 nM
Ki [2]: 143 nM
SMILES: O=C1CC(c2c[nH]c3ccc(F)cc23)C(=O)N1CCCN1CCC(c2c[nH]c3ccccc23)CC1 (centres undefined)

Ki [8]: 71 nM
Ki [1]: 201 nM
Ki [2]: 3.2 nM
Ki [10]: 458 nM
half-life at 1 µM [16]: 9.9 min
Ki (D(2) dopamine receptor): 20 nM
SMILES: COc1ccc2[nH]cc(C3CCN(CCCCN4C(=O)CC(c5c[nH]c6ccc(F)cc56)C4=O)CC3)c2c1 (centres undefined)
deltaT (Mus musculus [3]): -0.2 °C
deltaT (Mus musculus [4]): -3.2 °C
deltaT (Mus musculus [5]): 0.8 °C
deltaT (Mus musculus [6]): -0.6 °C
deltaT (Mus musculus [7]): 0.4 °C
deltaT (Mus musculus [9]): 0.2 °C
deltaT (Mus musculus [11]): -1.4 °C
deltaT (Mus musculus [12]): 0.2 °C
deltaT (Mus musculus [13]): 0.8 °C
deltaT (Mus musculus [14]): -0.4 °C
deltaT (Mus musculus [15]): 0.3 °C
deltaT (Mus musculus [17]): -1.1 °C
deltaT (Mus musculus [18]): 0.6 °C
deltaT (Mus musculus [19]): 0.6 °C

Ki [1]: 523 nM
Ki [2]: 204 nM
SMILES: COc1ccc2[nH]cc(C3CC(=O)N(CCCN4CCC(c5c[nH]c6ccccc56)CC4)C3=O)c2c1 (centres undefined)

Ki [2]: 183 nM
SMILES: O=C1CC(c2c[nH]c3ccccc23)C(=O)N1CCCCN1CCCC(c2c[nH]c3ccc(F)cc23)C1 (centres undefined)

Ki [8]: 29 nM
Ki [1]: 51 nM
Ki [2]: 13 nM
Ki [10]: 50 nM
half-life at 1 µM [16]: 10 min
Ki (D(2) dopamine receptor): 190 nM
SMILES: O=C1CC(c2c[nH]c3ccc(F)cc23)C(=O)N1CCCCN1CCC(c2c[nH]c3ccccc23)CC1 (centres undefined)
deltaT (Mus musculus [20]): 0.1 °C
deltaT (Mus musculus [21]): -0.4 °C
deltaT (Mus musculus [3]): -0.6 °C
deltaT (Mus musculus [4]): -2.3 °C
deltaT (Mus musculus [22]): -0.4 °C
deltaT (Mus musculus [6]): -0.2 °C
deltaT (Mus musculus [7]): -0.4 °C
deltaT (Mus musculus [23]): 0.3 °C
deltaT (Mus musculus [9]): 0 °C
deltaT (Mus musculus [11]): -0.7 °C
deltaT (Mus musculus [12]): 0.1 °C
deltaT (Mus musculus [13]): -0.3 °C
deltaT (Mus musculus [15]): -0.2 °C
deltaT (Mus musculus [17]): -0.6 °C
deltaT (Mus musculus [24]): -1.8 °C
deltaT (Mus musculus [18]): -0.2 °C
deltaT (Mus musculus [19]): -0.2 °C
deltaT (Mus musculus [25]): -0.7 °C
